# The source made the active and inactive calls. The rule behind the calls is not given here.
# What was measured:
# [1] = biological target: T1, C-X-C chemokine receptor type 4 (Homo sapiens, UniProt P61073); assay: Displacement of biotinylated-TN14003 from CXCR4 in human MDA-MB-231 cells assessed as reduction in fluorescence preincubated for 10 mins followed by biotinylated-TN14003 addition measured after 30 mins by streptavidin-rhodamine staining based microscopic analysis; format: cell-based
# Mus musculus [2] = assay: Toxicity in carrageenan-induced paw edema C57BL/6J mouse model assessed as mortality at 10 mg/kg administered 30 mins after carrageenan challenge and then once daily following initial dose measured 74 hrs post inflammation induction and 2 hrs post last dose; format: organism-based; settings: in vivo
# [3] = biological target: T1, C-X-C chemokine receptor type 4; assay: Inhibition of CXCR4/CXCL12 interaction-mediated chemotaxis in human MDA-MB-231 cells assessed as inhibition of cell invasion at 100 nM after 22 hrs by hematoxylin/eosin dye-based matrigel assay relative to control
# Mus musculus [4] = assay: Anti-inflammatory activity in C57BL/6J mouse assessed as suppression of carrageenan-induced paw edema at 10 mg/kg administered 30 mins after carrageenan challenge and then once daily following initial dose measured 74 hrs post inflammation induction and 2 hrs post last dose relative to control; format: functional
# Mus musculus [5] = assay: Antiinflammatory activity in C57BL/6J mouse paw assessed as reduction in carrageenan-induced paw edema volume at 10 mg/kg administered 30 mins after carrageenan challenge and then once daily following initial dose measured 74 hrs post inflammation induction and 2 hrs post last dose by hematoxylin and eosin-staining based assay; format: functional, organism-based
# T1 sequence (P61073 whole entry): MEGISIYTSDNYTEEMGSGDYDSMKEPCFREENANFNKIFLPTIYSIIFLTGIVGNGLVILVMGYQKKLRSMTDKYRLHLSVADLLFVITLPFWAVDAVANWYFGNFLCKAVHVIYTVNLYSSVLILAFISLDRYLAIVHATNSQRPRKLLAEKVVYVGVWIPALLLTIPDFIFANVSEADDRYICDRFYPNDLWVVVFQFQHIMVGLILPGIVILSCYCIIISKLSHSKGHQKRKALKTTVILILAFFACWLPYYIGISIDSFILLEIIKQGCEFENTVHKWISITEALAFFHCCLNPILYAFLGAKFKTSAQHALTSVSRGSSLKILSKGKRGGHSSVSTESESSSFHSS
Compound,EC [1] [nM],Activity (Mus musculus [2]),inhibition [3] [%],inhibition in vivo at 10 mg/kg (Mus musculus [4]) [%],IC50 [1] [nM],Activity (Mus musculus [5])
COc1ccc(CNc2ccc(NCc3ccc(OC)cc3)nc2)cc1,1000,–,–,–,–,–
COc1cccc(NCc2cccc(CNc3cccc(OC)c3)n2)c1,100,Non-Toxic,37,20.1,–,–
Fc1ccc(NCc2cccc(CNc3ccc(F)cc3)n2)cc1,100,–,5,–,–,–
Clc1ccccc1NCc1cccc(CNc2ccccc2Cl)n1,> 1000,–,–,–,–,–
CCc1cccc(NCc2cccc(CNc3cccc(CC)c3)n2)c1,1000,–,–,–,–,–
Clc1cccc(CNc2ccc(NCc3cccc(Cl)c3)nc2)c1,1000,–,–,–,–,–
FC(F)(F)c1cccc(NCc2cccc(CNc3cccc(C(F)(F)F)c3)n2)c1,1000,–,15,–,–,–
Cc1cccc(NCc2cccc(CNc3cccc(C)c3)n2)c1,100,Non-Toxic,60,20.2,–,–
c1cc(CN2CCOCC2)nc(CN2CCOCC2)c1,10,Non-Toxic,63,39.1,35.7,–
Clc1ccc(NCc2cccc(CNc3ccc(Cl)cc3)n2)cc1,100,–,21,–,–,–
c1ccc(NCc2cccc(CNc3ccccc3)n2)cc1,100,–,< 1,–,–,–
Cc1ccccc1NCc1cccc(CNc2ccccc2C)n1,> 1000,–,–,–,–,–
CSc1ccc(NCc2cccc(CNc3ccc(SC)cc3)n2)cc1,> 1000,–,–,–,–,–
CCc1ccccc1NCc1cccc(CNc2ccccc2CC)n1,1,Non-Toxic,59,18.1,–,–
CCc1ccc(NCc2cccc(CNc3ccc(CC)cc3)n2)cc1,1,Non-Toxic,64,42,19.6,–
Clc1cccc(NCc2cccc(CNc3cccc(Cl)c3)n2)c1,100,–,34,–,–,–
COc1ccccc1NCc1cccc(CNc2ccccc2OC)n1,1000,–,0,–,–,–
O=[N+]([O-])c1ccc(NCc2cccc(CNc3ccc([N+](=O)[O-])cc3)n2)cc1,> 1000,–,–,–,–,–
Fc1ccccc1NCc1cccc(CNc2ccccc2F)n1,1000,–,–,–,–,–
Fc1cccc(NCc2ccc(CNc3cccc(F)c3)nc2)c1,1000,–,–,–,–,–
O=[N+]([O-])c1cccc(NCc2cccc(CNc3cccc([N+](=O)[O-])c3)n2)c1,> 1000,–,–,–,–,–
Cc1ccc(NCc2cccc(CNc3ccc(C)cc3)n2)cc1,1000,–,–,–,–,–
Fc1cccc(NCc2cccc(CNc3cccc(F)c3)n2)c1,10,Non-Toxic,50,20.3,–,Active
CCOc1ccc(CNc2ccc(NCc3ccc(OCC)cc3)nc2)cc1,100,Non-Toxic,60,–,–,–
Cc1cccc(NCc2ccc(CNc3cccc(C)c3)nc2)c1,1,Non-Toxic,58,–,–,–
Fc1ccc(CNc2ccc(NCc3ccc(F)cc3)nc2)cc1,> 1000,–,–,–,–,–
FC(F)(F)c1ccccc1NCc1cccc(CNc2ccccc2C(F)(F)F)n1,> 1000,–,–,–,–,–
COc1ccccc1NCc1ccc(CNc2ccccc2OC)nc1,100,–,< 5,–,–,–
FC(F)(F)c1ccc(NCc2cccc(CNc3ccc(C(F)(F)F)cc3)n2)cc1,1,Non-Toxic,52,20.3,–,–
COc1ccc(NCc2cccc(CNc3ccc(OC)cc3)n2)cc1,100,–,5,–,–,–

# — ChEMBL document CHEMBL3861984, “Synthesis and evaluation of 2,5 and 2,6 pyridine-based CXCR4 inhibitors” (Bioorg Med Chem, 2016)
